Results from US20020022022A1, “Inhibition of cell proliferation and matrix synthesis by antioxidants and NAD(P)H oxidase inhibitors” (priority 2000, published 2002).
“Also recorded” adds a separate entry of the source. Like-named read-outs stand apart in the source and are kept apart here.

Experiments:
vascular SMC = assay: Vascular SMC proliferation, serum-stimulated (cell counting); assay type: cell-based; conditions: 10% FBS, 3 days after treatment; concentration-dependent
Procedure: FIG. 7B. ROS and vascular SMC proliferation. SMC (10,000 cells/well) are arrested with 0.5% FBS for 48 hours and then stimulated with 10% FBS in the presence or absence of various inhibitors. Cell growth is examined at 3 days after treatment by cell counting. […] The experiments are repeated 3 times yielding similar results.
(§1) Fibroblasts are isolated from the adventitia of porcine coronary arteries as described. (26) The cells (passage 2-6) are plated in triplicates at 10,000 cells/well in 24-well plates in DMEM supplemented with 10% FBS. At 24 hours later, cells are arrested in DMEM containing 0.5% FBS for 48 hours. Afterwards, they are stimulated with 10% FBS for 3 days with or without addition of indicated inhibitors. Cells are trypsinized at 72 hours after stimulation and counted in a Coulter counter. Values are derived from 3 wells/treatment and the experiments are repeated at least three times on separate occasions.

[1] = cited from earlier work
[2] = tested on: —O2^− generation in coronary adventitial fibroblasts; assay: Serum-induced —O2^− generation in coronary adventitial fibroblasts (NBT to formazan); assay type: cell-based, porcine
Procedure: —O2^− production in isolated adventitial fibroblasts: Adventitial fibroblasts (passage 2-6) are plated in 6-well plates at 100,000 cells/well in 10% FBS. Two (2) days later, when cells are ˜80% confluent, they are arrested in 0.5% FBS for the next 48 hours. Afterwards, they are stimulated with 10% FBS for 1-24 hours, followed by incubation with NBT (0.5 mg/ml in phenol-free DMEM) for one hour. After a brief washing, cells are trypsinized, and cell pellets are dissolved in 100% pyridine. The light absorbance is measured at 540 nm, and the NBT reduction to formazan is calculated as described above and corrected by cell number. Values are derived from 6-9 wells from three separate experiments.

adventitial fibroblasts = assay: Cell proliferation assay, serum-stimulated adventitial fibroblasts (cell counting); assay type: cell-based, porcine; conditions: for effect on fibroblast growth (cell counting): 10% FBS, 3 days after treatment, concentration-dependent; for effect on serum-induced growth of vascular cells in vitro: serum-stimulated isolated vascular cells (fibroblasts and SMC, FIGS. 7A and 7B)
Procedure: as §1

[3] = tested on: superoxide anion (—O2^−) generation in coronary adventitia; assay: —O2^− production in uninjured coronary adventitia (SOD-inhibitable NBT reduction); assay type: cell-based, pigs; conditions: uninjured coronary rings pre-incubated with inhibitor; DPI 100 μM, ROT 50 μM, OXY 300 μM
Procedure: The production of —O2^− is measured by superoxide dismutase- (SOD) or tiron-inhibitable conversion of nitroblue tetrazolium (NBT) to formazan. (20,21)
—O2^− production in coronary arteries: Coronary arteries are dissected free from adipose tissue and myocardium and then cut into ˜5 mm rings and placed in 24-well plates. Tissues are balanced in phenol-free DMEM at 37° C. in a CO2 incubator for 30 minutes with or without addition of SOD (SOD, 1000 unit/ml) or tiron (10 mM), both scavengers of —O2^− Freshly made NBT (100 mg/L in phenol-free DMEM) is added to the tissues with a gentle rocking for 3 hours. The reaction is terminated by addition of equal volume of 0.5N HCl, and tissues are rinsed twice with cold PBS. To extract formazan, tissues are pulverized in liquid nitrogen and dissolved in 100% pyridine at 80° C. for 30 minutes. After centrifugation, light absorbance is read in supernatants at 540 nm. The NBT reduction to formazan is calculated using the following formula: NBT reduction=A×V/(T×E×L) (A: absorbance; V: volume of solubilizing solution; T: time of incubation with NBT (minutes); E: extinction coefficient=0.72 mmol.mm; L: length of light travel through the solution, 10 mm). Either SOD- or tiron-inhibitable NBT reduction is calculated as measures of —O2^− production (pmol/min/mg wet weight). To determine the pathways mediating —O2^− production, several inhibitors are used in the experiments, including diphenyleneiodonium (DPI, 100 μM), rotenone (ROT, 50 μM), oxypurinol (OXY, 300 μM), N^ω-nitro-L-arginine methyl ester (L-NAME, 1 mM), and diethyldithio-carbamic acid (DETCA, 10 mM). The n value represents the number of vascular rings obtained from at least 3 animals per experimental condition.

[4] = tested on: superoxide anion (—O2^−) in SVG; assay: Superoxide anion in saphenous vein grafts (SOD-inhibitable NBT reduction); assay type: cell-based, pigs; conditions: SVG 2 weeks after surgery, DPI 100 μM; for effect on superoxide anion in SVG (SOD-inhibitable NBT reduction): L-NAME 1 mM
Procedure: A porcine model of a graft interposition in the common carotid artery is used as described. (49) Domestic crossbred pigs (n=22) weighing 35-50 kg are sedated with Telazol (3-5 mg/kg) and atropine (0.01 mg/kg) i.m. Anesthesia is maintained with Propofol, i.v. (15 mg/kg/hr). The animals are ventilated with 100% oxygen. Saphenous veins are harvested without distension and incubated for 30 minutes in saline containing nitroglycerine (0.5 mg/ml). Both carotid arteries are dissected free and heparin (150 U/kg) is administered i.v. A ˜2 cm section of the carotid artery is excised and reversed vein interposition grafting is performed. The excised carotid artery then is grafted into the contralateral carotid artery. Postoperative analgesia is provided with Buprenex (0.015 mg/kg) i.m. The animals are given aspirin 650 mg/day p.o. At the times indicated, animals are euthanized with Euthasol (80 mg/kg) i.v. and vascular tissues harvested.
Superoxide anion (—O2^−) production is measured by SOD-inhibitable conversion of NTB to formazan. (20,21) Normal saphenous veins, arteries, SVG, and AG are harvested at 2 weeks after surgery. After the removal of adventitia and endothelium, tissues are cut into ˜5 mm strips, placed in a 24-well plate, and balanced in pheno-free DMEM at 37° C. in CO2 for 30 minutes. Freshly made NBT (0.1 mg/ml in pheno-free DMEM) is added for 3 hours with or without addition of SOD (1000 U/ml). The reaction is terminated by 0.5N HCl and rinsing twice with cold PBS. To extract formazan, tissues are pulverized in liquid nitrogen, dissolved in 100% pyridine at 80° C. for 30 minutes, and centrifuged. Supernatants are read at 540 nm and NBT reduction is calculated as follows: NBT reduction=A×V/(T×E×L) (A: absorbance; V: volume of solubilizing solution; T: time of incubation with NBT (minutes); E: extinction coefficient=0.72 mmol.mm; L: length of light travel through the solution (10 mm).) The SOD-inhibitable NBT reduction is calculated as a measure of —O2^− (pmol/mg wet weight/min). In separate experiments, the inhibitors of oxidative enzymes are used, inlcuding diphenyleneiodonium (DPI, 100 μM) rotenone (ROT, 50 μμM), oxypurinol (OXY, 300 μμM) and N^ω-nitro-L-arginine methyl ester (L-NAME, 1 mM), to determine the origin of —O2^− in vascular grafts.

[5] = tested on: superoxide generation in injured coronary arteries; assay: Superoxide generation in injured coronary arteries (SOD-inhibitable NBT reduction); assay type: cell-based, pigs; conditions: for Superoxide generation (SOD-inhibitable NBT reduction): rings pretreated 30 minutes, DPI 100 μM or L-NAME 1 mM; for effect on superoxide generation after coronary injury: injured coronary arteries, DPI 100 μM, L-NAME 1 mM
Text: Domestic crossbred female pigs (12-15 kg) are anesthetized and instrumented, as previously described. (22,23) After the exposure of the right common carotid artery, heparin (5,000 U) is intravenously administered. […] The third artery is used as a control. The animals are euthanatized with intravenous […] Laboratory) at the times indicated in the text. […] Coronary arteries are dissected free from adipose tissue and myocardium and then cut into 5 mm rings and placed in 24-well plates. […] The reaction is terminated by addition of equal volume of 0.5N HCl, and tissues are rinsed twice with cold PBS. To extract formazan, tissues are pulverized in liquid nitrogen and dissolved in 100% pyridine at 80° C. for 30 minutes. After centrifugation, light absorbance is read in supernatants at 540 nm. The NBT reduction to formazan is calculated using the following formula: NBT reduction=[…]: absorbance; V: volume of solubilizing solution; T: time of incubation with NBT (minutes); […] L: length of light travel through the solution, 10 mm).

[6] = pretreated 30 minutes, 10% FBS for 3 hours, DPI 10 μM, SOD 500 U/ml

For `COc1cc(C(C)=O)ccc1O` [apocynin, 4-hydroxy-3-methoxyacetopoenone], the “effect on SMC growth (cell counting)” value (vascular SMC) was “significantly inhibits”.

For `CCOC(=O)[C@H](CCc1ccccc1)N[C@@H](C)C(=O)N1[C@H](C(=O)O)C[C@@H]2CCC[C@@H]21` [ramipril], the cardiovascular mortality ([1]; chronic administration, HOPE trial) is listed as “reduction”.

With “SOD: superoxide dismutase, exogenous enzyme; dismutation of —O2^− to H2O2” the “effect on serum-induced —O2^− production” value [2, 6] was “significant inhibition; also recorded: significant reduction”, the “effect on fibroblast growth (cell counting)” value (“effect on fibroblast growth” for short) (adventitial fibroblasts) was “no significant inhibition” and the “effect on serum-induced growth of vascular cells in vitro” value (shortened to “effect on serum-induced growth”) (adventitial fibroblasts) was “does not prevent; also recorded: ineffective”. For the same molecule, the “effect on SMC growth (cell counting)” value (vascular SMC) was “no significant inhibition”.

In the case of vitamin E, the “clinical results with antioxidant” value ([1]; clinical) is listed as “largely negative”.

For `C=C(C)[C@H]1Cc2c(ccc3c2O[C@@H]2COc4cc(OC)c(OC)cc4[C@@H]2C3=O)O1` [ROT, rotenone], the “effect on —O2^− generation in coronary adventitia (SOD-inhibitable NBT reduction)” value [3] was “no inhibitory effects; also recorded: no effect”, the “effect on serum-induced —O2^− production” value [2, 6] was “no effects” and the “effect on superoxide anion in SVG (SOD-inhibitable NBT reduction)” value [4] was “do not decrease”. The “effect on superoxide anion in SVG (SOD-inhibitable NBT reduction)” value ([4]; listed as rotenone) was “no effects”.

For `COC(=O)[C@@H](N)CCCNC(=N)N[N+](=O)[O-]` [L-NAME, N^ω-nitro-L-arginine methyl ester], the “Superoxide generation (SOD-inhibitable NBT reduction)” value ([5]; 2 days after injury) was 12.9 ± 9.4 pmol/mg/min, the “Superoxide generation (SOD-inhibitable NBT reduction)” value ([5]; 10 days after injury) was 11.5 ± 6.1 pmol/mg/min and the “effect on superoxide generation after coronary injury” value [5] was “shows no effect”. The “effect on serum-induced —O2^− production” value [2, 6] was “no effects”, the “effect on serum-induced growth” value (adventitial fibroblasts) was “no significant effects” and the “effect on superoxide anion in SVG (SOD-inhibitable NBT reduction)” value [4] was “no effects; also recorded: do not decrease”.

For `O=c1[nH]c(=O)c2c[nH]nc2[nH]1` [OXY, oxypurinol], the “effect on —O2^− generation in coronary adventitia (SOD-inhibitable NBT reduction)” value [3] was “no inhibitory effects; also recorded: no effect”, the “effect on serum-induced —O2^− production” value [2, 6] was “no effects” and the “effect on serum-induced growth” value (adventitial fibroblasts) was “no significant effects”. For the same molecule, the “effect on superoxide anion in SVG (SOD-inhibitable NBT reduction)” value [4] was “do not decrease” and the “effect on superoxide anion in SVG (SOD-inhibitable NBT reduction)” value ([4]; listed as oxypurinol) was “no effects”.

For `O=S(=O)(O)c1cc(O)c(O)c(S(=O)(=O)O)c1` [tiron], the “effect on fibroblast growth” value (adventitial fibroblasts) was “significantly inhibits”, the “effect on serum-induced growth” value (adventitial fibroblasts) was “inhibits; also recorded: abrogates” and the “effect on SMC growth (cell counting)” value (vascular SMC) was “significantly inhibits”.

With `CC(=O)N[C@@H](CS)C(=O)O` [NAC, N-acetylcysteine] the “effect on SMC growth (cell counting)” value (vascular SMC) was “significantly inhibits”.

For `c1ccc2c(c1)[I+]c1ccccc1-2` [DPI, diphenyleneiodonium], the “effect on —O2^− generation in coronary adventitia (SOD-inhibitable NBT reduction)” value [3] was “inhibits; also recorded: abolishes”, the “Superoxide generation (SOD-inhibitable NBT reduction)” value ([5]; 2 days after injury) was 0.5 ± 0.9 pmol/mg/min and the “Superoxide generation (SOD-inhibitable NBT reduction)” value ([5]; 10 days after injury) was 0.2 ± 0.3 pmol/mg/min. The “effect on superoxide generation after coronary injury” value [5] was “almost entirely abolishes”, the “effect on serum-induced —O2^− production” value [2] was “significant inhibition; also recorded: significant reduction” and the “effect on fibroblast growth” value (adventitial fibroblasts) was “significantly inhibits”. For the same molecule, the “effect on serum-induced growth” value (adventitial fibroblasts) was “significantly inhibits; also recorded: abrogates”, the “effect on SMC growth (cell counting)” value (vascular SMC) was “significantly inhibits” and the “reduction of —O2^− in SVG” value [4] was > 95%. The “effect on superoxide anion in SVG (SOD-inhibitable NBT reduction)” value [4] was “significantly reduced”.

B1: CAT: catalase; removal of H2O2 (protein, UniProt P00432 2-527, looked up)
Catalase: ADNRDPASDQMKHWKEQRAAQKPDVLTTGGGNPVGDKLNSLTVGPRGPLLVQDVVFTDEMAHFDRERIPERVVHAKGAGAFGYFEVTHDITRYSKAKVFEHIGKRTPIAVRFSTVAGESGSADTVRDPRGFAVKFYTEDGNWDLVGNNTPIFFIRDALLFPSFIHSQKRNPQTHLKDPDMVWDFWSLRPESLHQVSFLFSDRGIPDGHRHMNGYGSHTFKLVNANGEAVYCKFHYKTDQGIKNLSVEDAARLAHEDPDYGLRDLFNAIATGNYPSWTLYIQVMTFSEAEIFPFNPFDLTKVWPHGDYPLIPVGKLVLNRNPVNYFAEVEQLAFDPSNMPPGIEPSPDKMLQGRLFAYPDTHRHRLGPNYLQIPVNCPYRARVANYQRDGPMCMMDNQGGAPNYYPNSFSAPEHQPSALEHRTHFSGDVQRFNSANDDNVTQVRTFYLKVLNEEQRKRLCENIAGHLKDAQLFIQKKAVKNFSDVHPEYGSRIQALLDKYNEEKPKNAVHTYVQHGSHLSAREKANL
In the case of B1, the “effect on fibroblast growth” value (adventitial fibroblasts) is reported as “significantly inhibits”, the “effect on serum-induced growth” value (adventitial fibroblasts) is reported as “inhibits; also recorded: abrogates” and the “effect on SMC growth (cell counting)” value (vascular SMC) is reported as “significantly inhibits”.
